Data as given in US8648092B2, “Imidazo[1,2-a]pyridine derivatives: preparation and pharmaceutical applications” (MEI Pharma, priority 2005, dated 2014).

How the values were obtained:
[1] = target: HDAC1 enzyme (recombinant GST-HDAC1) (Homo sapiens (Human), UniProt Q13547); experiment: In vitro HDAC assay for determination of IC50 values (BIOMOL fluorescent-based HDAC activity assay); type: biochemical; settings: Flur de lys substrate, 2 h room temperature, read-out: IC50 (HDAC 1)
Experimental: Biological Testing and Enzyme Assays Recombinant GST-HDAC1 Protein Expression and Purification
Human cDNA library was prepared using cultured SW620 cells. Amplification of human HDAC1 coding region from this cDNA library was cloned separately into the baculovirus expression pDEST20 vector (GATEWAY Cloning Technology, Invitrogen Pte Ltd). The pDEST20-HDAC1 construct was confirmed by DNA sequencing. Recombinant baculovirus was prepared using the Bac-To-Bac method following the manufacturer's instruction (Invitrogen Pte Ltd).
Expression of GST-HDAC1 was done by infecting SF9 cells (Invitrogen Pte Ltd) with pDEST20-HDAC1 baculovirus at MOI=1 for 48 h. Soluble cell lysate was incubated with pre-equilibrated Glutathione Sepharose 4B beads (Amersham) at 4° C. for 2 h. The beads were washed with PBS buffer for 3 times. The GST-HDAC1 protein was eluted by elution buffer containing 50 mM Tris, pH8.0, 150 mM NaCl, 1% Triton X-100 and 10 mM or 20 mM reduced Glutathione. The purified GST-HDAC1 protein was dialyzed with HDAC storage buffer containing 10 mM Tris, pH7.5, 100 mM NaCl and 3 mM MgCl2. 20% Glycerol was added to purified GST-HDAC1 protein before storage at −80° C.
In Vitro HDAC Assay for Determination of IC50 Values
The assay has been carried out in 96 well format and the BIOMOL fluorescent-based HDAC activity assay has been applied. […] Flur de lys Developer was added and the reaction was incubated for 10 min. Briefly, deacetylation of the substrate sensitizes it to the developer, which then generates a fluorophore. The fluorophore is excited with 360 nm light and the emitted light (460 nm) is detected on a fluorometric plate reader (Tecan Ultra Microplate detection system, Tecan Group Ltd.).
The analytical software, Prism 4.0 (GraphPad Software Inc) has been used to generate IC50 from a series of data.

Colo205 cells = experiment: Cell-based proliferation assay for determination of GI50 values (CyQUANT); parameters: species or system human; settings: Homo sapiens
Experimental: Cell-Based Proliferation Assay for Determination of GI50 Values
Human cancer cell lines (e.g. Colo205) were obtained from ATCC. Colo205 cells were cultivated in RPMI 1640 containing 2 mM L-Glutamine, 5% FBS, 1.0 mM Na Pyruvate. Colo205 cells were seeded in 96-wells plate at 5000 cells per well. The plates were incubated at 37° C., 5% CO2, for 24 h. Cells were treated with compounds at various concentrations for 96 h. Cell growth was then monitored using CyQUANT® cell proliferation assay (Invitrogen Pte Ltd). Dose response curves were plotted to determine GI50 values for the compounds using XL-fit (ID Business Solution, Emeryville, Calif.). GI50 is defined as the concentration of compound required for 50% inhibition of cell growth.
The cellular or growth inhibition activity results of representative compounds are shown in Table 4 below (unit in the table is micromolar).

Sequence of HDAC1 enzyme (recombinant GST-HDAC1) (Q13547 whole entry): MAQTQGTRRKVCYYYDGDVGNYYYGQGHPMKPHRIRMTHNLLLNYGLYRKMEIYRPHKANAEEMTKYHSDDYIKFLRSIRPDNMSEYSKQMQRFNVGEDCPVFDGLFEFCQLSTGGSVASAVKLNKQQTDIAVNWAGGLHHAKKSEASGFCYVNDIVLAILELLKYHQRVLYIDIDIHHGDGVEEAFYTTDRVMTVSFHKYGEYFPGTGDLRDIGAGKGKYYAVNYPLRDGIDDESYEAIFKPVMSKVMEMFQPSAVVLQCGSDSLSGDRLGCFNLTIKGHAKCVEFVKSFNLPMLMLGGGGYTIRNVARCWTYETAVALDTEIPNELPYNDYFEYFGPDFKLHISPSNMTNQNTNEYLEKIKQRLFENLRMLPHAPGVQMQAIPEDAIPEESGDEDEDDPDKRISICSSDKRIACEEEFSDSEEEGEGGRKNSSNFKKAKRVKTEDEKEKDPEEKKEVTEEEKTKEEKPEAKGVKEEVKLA

Row | SMILES | IC50 [1] | GI50 (Colo205 cells; COLO 205, 96 h treatment) | GI50 (Colo205 cells; COLO 205, 96 h, 96 h treatment)
1 | CCCCCc1nc2ccc(/C=C/C(=O)NO)cn2c1NCCOC [Compound 9, N-Hydroxy-3-[3-(2-methoxy-ethylamino)-2-pentyl-imidazo[1,2-a]pyridin-6-yl]-acrylamide] | 1300 nM | 5300 nM | 
2 | CCCc1nc2cc(/C=C/C(=O)NO)ccn2c1CNC(C)(C)C [Compound 123, 3-[3-(tert-Butylamino-methyl)-2-propyl-imidazo[1,2-a]pyridin-7-yl]-N-hydroxy-acrylamide] | 40 nM |  | 180 nM
3 | COCCNc1c(CC(C)CC(C)(C)C)nc2c(/C=C/C(=O)NO)cccn12 (stereo not shown) [Compound 16, (E)-N-hydroxy-3-(3-(2-methoxyethylamino)-2-(2,4,4-trimethylpentyl)imidazo[1,2-a]pyridin-8-yl)acrylamide] | > 10000 nM | 20000 nM | 
4 | CCN(CCC(C)C)Cc1c(C(C)(C)C)nc2cc(/C=C/C(=O)NO)ccn12 [Compound 89, 3-(2-tert-Butyl-3-{[ethyl-(3-methyl-butyl)-amino]-methyl}-imidazo[1,2-a]pyridin-7-yl)-N-hydroxy-acrylamide] | 60 nM |  | 350 nM
5 | CCCCN(CC)Cc1c(CC)nc2cc(/C=C/C(=O)NO)ccn12 [Compound 138, 3-{3-[(Butyl-ethyl-amino)-methyl]-2-ethyl-imidazo[1,2-a]pyridin-7-yl}-N-hydroxy-acrylamide] | 50 nM | 180 nM | 
6 | CCCN(Cc1c(-c2ccccc2)nc2cc(/C=C/C(=O)NO)ccn12)C(C)CC (stereo not shown) [Compound 54, 3-{3-[(sec-Butyl-propyl-amino)-methyl]-2-phenyl-imidazo[1,2-a]pyridin-7-yl}-N-hydroxy-acrylamide] | 1000 nM | 4700 nM | 
7 | O=C(C=Cc1ccn2c(CN3CCC(Cc4ccccc4)CC3)c(-c3ccccc3)nc2c1)NO [Compound 58, 3-[3-(4-Benzyl-piperidin-1-ylmethyl)-2-phenyl-imidazo[1,2-a]pyridin-7-yl]-N-hydroxy-acrylamide] | 1500 nM | 2900 nM | 
8 | CCN(CCN(C)C)Cc1c(-c2ccccc2)nc2cc(/C=C/C(=O)NO)ccn12 [Compound 44, 3-(3-{[(2-Dimethylamino-ethyl)-ethyl-amino]-methyl}-2-phenyl-imidazo[1,2-a]pyridin-7-yl)-N-hydroxy-acrylamide] | 2900 nM | 32000 nM | 
9 | CCN(CCCSC)Cc1c(C(C)(C)C)nc2cc(/C=C/C(=O)NO)ccn12 [Compound 95, 3-(2-tert-Butyl-3-{[ethyl-(3-methylsulfanyl-propyl)-amino]-methyl}-imidazo[1,2-a]pyridin-7-yl)-N-hydroxy-acrylamide] | 90 nM | 600 nM | 
10 | COCCNc1c(CCc2ccccc2)nc2ccc(/C=C/C(=O)NO)cn12 [Compound 5, N-Hydroxy-3-[3-(2-methoxy-ethylamino)-2-phenethyl-imidazo[1,2-a]pyridin-6-yl]-acrylamide] | 350 nM | 27000 nM | 
11 | CCCCCc1nc2cc(/C=C/C(=O)NO)ccn2c1CN(CC)CCC(C)(C)C [Compound 131, 3-(3-{[(3,3-Dimethyl-butyl)-ethyl-amino]-methyl}-2-pentyl-imidazo[1,2a]pyridin-7-yl)-N-hydroxy-acrylamide] | 30 nM | 150 nM | 
12 | CCN(CCC(C)(C)C)Cc1c(C(C)(C)C)nc2cc(/C=C/C(=O)NO)ccn12 [Compound 92, 3-(2-tert-Butyl-3-{[(3,3-dimethyl-butyl)-ethyl-amino]-methyl}-imidazo[1,2a]pyridin-7-yl)-N-hydroxy-acrylamide] | 70 nM |  | 480 nM
13 | CCCCN(CC)Cc1c(CCC)nc2cc(/C=C/C(=O)NO)ccn12 [Compound 132, 3-{3-[(Butyl-ethylamino)-methyl]-2-propyl-imidazo[1,2-a]pyridin-7-yl}-N-hydroxy-acrylamide] | 40 nM | 160 nM | 
14 | CCCCc1nc2cc(/C=C/C(=O)NO)ccn2c1CN(CC)CC(C)C [Compound 112, 3-{2-Butyl-3-[(ethyl-isobutyl-amino)-methyl]-imidazo[1,2-a]pyridin-7-yl}-N-hydroxy-acrylamide] | 90 nM | 570 nM | 
